Experimental data reported in paper PMC9604868, “Evaluation of Possible Antioxidant, Anti-Hyperglycaemic, Anti-Alzheimer and Anti-Inflammatory Effects of Teucrium polium Aerial Parts (Lamiaceae)” (Life, 2022).

Legend:
[1] = DPPH radical scavenging assay; conditions: means ± SD (n = 3)
Procedure: (§1) The antioxidant activity of T. polium L. hydroalcoholic extract was achieved using several analytical tests distinguished by their mechanism of reaction 2-diphenyl-1-picrylhydrazyl (DPPH), β-carotene and galvinoxyl radical (GOR). The reaction was initiated by mixing 0.5 mL of hydroalcoholic extract with 1 mL of DPPH (0.2 mM), β-carotene (0.5 mM) and GOR (0.1 mM) using the protocols described in references. The mixtures were left in the dark at room temperature for approximately 30 min; after that, the absorbance was measured at λmax: […], 490 and 428 nm for the mentioned tests, respectively, against a blank using a UV-vis spectrophotometer apparatus (Shimadzu UV-2450, Japan). The inhibition percentage was calculated as follows: I% = ((A0 − A1)/A0) × 100, where A0 is the absorbance of DPPH, β-carotene and GOR solutions without extracts, while A1 were the absorbance of the sample. The activity results for all tests were expressed as IC50 (half maximal inhibitory concentration) values, which have been calculated (using Microsoft Excel 2016) from an antiradical linear graph formed by the X axis, which represented extract concentration, and the Y axis, which represented their relative inhibition percentage. In addition, the antioxidant activity results were compared with three standards, BHA, BHT and vitamin, as represented in Table 1.

[2] = β-carotene assay; conditions: means ± SD (n = 3)
Procedure: as §1

[3] = tested on: carrageenan-induced paw edema; experiment: Carrageenan-induced hind paw edema; conditions: mice, gavage, extract 10% 0.5 mL or diclofenac 10 mg/kg; for % Oedema Reduction: versus control
[4] = tested on: rat renal medulla COX; parameters: method as in PMID 33802084; conditions: cited from earlier work

COc1ccc(O)c(C(C)(C)C)c1 [BHA, butylated hydroxyanisole]
DPPH IC50 [1]: 6.14 ± 0.41 µg/mL
β Carotene IC50 [2]: 1.05 ± 0.03 µg/mL

Cc1cc(C(C)(C)C)c(O)c(C(C)(C)C)c1 [BHT, 2,6-ditert-butyl-4-methylphenol]
DPPH IC50 [1]: 12.99 ± 0.41 µg/mL
β Carotene IC50 [2]: 0.91 ± 0.01 µg/mL

O=C(O)Cc1ccccc1Nc1c(Cl)cccc1Cl [Diclofenac sodium]
% Oedema ([3]; 4 h after carrageenan): 20.42%
Average Paw Weight (g) Left ([3]; carrageenan-injected paw, 4 h): 0.171 ± 0.009 g
Average Paw Weight (g) Right ([3]; uninjected paw, 4 h): 0.142 ± 0.001 g
% Oedema Reduction ([3]; 4 h after carrageenan): 52.97%
% Oedema Reduction ([3]; 4 h after carrageenan, listed as diclofenac sodium): 52.97%

O=c1cc(-c2ccc(O)c(O)c2)oc2cc(O)cc(O)c12 [Luteolin (7), luteolin]
IC50 [4]: 100 to 130 µM

Cc1c(C)c2c(c(C)c1O)CC[C@@](C)(CCC[C@H](C)CCC[C@H](C)CCCC(C)C)O2 [Vitamin E, α-Tocopherol]
DPPH IC50 [1]: 15.81 ± 0.54 µg/mL
